Data as given in patent US5712300A, “Hydroxamic acid derivatives useful for the treatment of diseases related to connective tissue degradation” (priority 1997, dated 1998).

Legend:
[1] = target: Gelatinase; assay: MMP inhibition by particle concentration fluorescence technique (gelatinase); assay type: biochemical; conditions: pH 7.5; 15 min enzyme preincubation; substrate 1-3 h at room temperature; read-out: MMP Inhibition Constants, Gelatinase Ki
Protocol: Inhibitory activity is evaluated in one or more of the MMP enzymes (stromelysin, gelatinase, and collagenase) in vitro using a particle concentration fluorescence techniques. An inhibitor binds to MMP enzymes prevents the degradation of a substrate of stromelysin, gelatinase, or collagenase. The substrate is attached with a fluorescein and a biotin. The intact substrate then binds to an avidin-coated particle via the biotin moiety. Once the particle is washed and dried, a fluorescent signal is generated since the fluorescent group is attached to the particle. Without an inhibitor present, the substrate is degraded by MMP enzymes and the fluorescein group is removed, therefore, no fluorescent signal can be detected. Testing compounds are dissolved in DMSO to the desired concentration, then the solutions are diluted to 1:5 with MMP buffer (50 mM Tris-HCl, pH 7.5; 150 mM NaCl; 0.02% NAN3). Serial two-fold dilutions of each compound are prepared. A concentrated, activated enzyme solution is transferred into each plate of the testing compounds, and the mixture is incubated at room temperature for 15 minutes. Thawed MMP substrate is then added into all plates, and the plates are incubate in the dark for 1-3 hours at room temperature. At this point, the substrate mixture is reacted with 0.1% avidin-coated polystyrene particles.

[2] = target: Stromelysin (Homo sapiens, UniProt P08254); assay: MMP inhibition by particle concentration fluorescence technique (stromelysin); assay type: biochemical; conditions: pH 7.5; 15 min enzyme preincubation; substrate 1-3 h at room temperature; read-out: MMP Inhibition Constants, Stromelysin Ki
Stromelysin, sequence (P08254 100-477): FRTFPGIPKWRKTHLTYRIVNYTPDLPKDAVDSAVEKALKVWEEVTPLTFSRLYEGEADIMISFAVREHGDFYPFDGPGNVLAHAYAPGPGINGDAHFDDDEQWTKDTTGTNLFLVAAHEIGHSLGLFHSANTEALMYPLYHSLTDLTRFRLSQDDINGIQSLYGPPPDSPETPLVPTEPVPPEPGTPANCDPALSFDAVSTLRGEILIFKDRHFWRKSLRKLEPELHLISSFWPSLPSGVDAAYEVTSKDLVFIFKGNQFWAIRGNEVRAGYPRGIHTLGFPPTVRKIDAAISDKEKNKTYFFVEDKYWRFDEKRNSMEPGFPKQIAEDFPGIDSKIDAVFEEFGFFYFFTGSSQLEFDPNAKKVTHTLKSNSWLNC
Text: An inhibitor binds to MMP enzymes prevents the degradation of a substrate of stromelysin, gelatinase, or collagenase. The substrate is attached with a fluorescein and a biotin. The intact substrate then binds to an avidin-coated particle via the biotin moiety. Once the particle is washed and dried, a fluorescent signal is generated since the fluorescent group is attached to the particle. Without an inhibitor present, the substrate is degraded by MMP enzymes and the fluorescein group is removed, therefore, no fluorescent signal can be detected. […] Serial two-fold dilutions of each compound are prepared. A concentrated, activated enzyme solution is transferred into each plate of the testing compounds, and the mixture is incubated at room temperature for 15 minutes.

Row | Compound | Ki [1] [nM] | Ki [2] [nM]
1 | CC(C)C[C@@]1([C@@H](CCN2C(=O)c3cc(Cl)c(Cl)cc3C2=O)C(=O)NO)CCN(CCc2ccccc2)C1=O (relative stereo) [Example 8, α-[2-(5,6-Dichloro-1,3-dihydro-1,3-dioxo-2H-isoindol-2-yl)ethyl]-N-hydroxy-3-(2-methylpropyl)-2-oxo-1-(2-phenylethyl)-3-pyrrolidineacetamide] | 734 | 1140
2 | CNC(=O)CN1CC[C@@](CC(C)C)([C@@H](CCN2C(=O)c3ccccc3C2=O)C(=O)NO)C1=O (relative stereo) [Example 26, α^3-[2-(1,3-Dihydro-1,3-dioxo-2H-isoindol-2-yl)ethyl]-N^3-hydroxy-N^1-methyl-3-(2-methylpropyl)-2-oxo-1,3-pyrrolidinediacetamide] | 998 | 713
3 | CC(C)C[C@@]1([C@@H](CCN2C(=O)c3cccc(F)c3C2=O)C(=O)NO)CCN(CCc2ccccc2)C1=O (relative stereo) [Example 12, α-[2-(4-Fluoro-1,3-dihydro-1,3-dioxo-2H-isoindol-2-yl)ethyl]-N-hydroxy-3-(2-methylpropyl)-2-oxo-1-(2-phenylethyl)-3-pyrrolidineacetamide] | 312 | 120
4 | CNC(=O)CN1CC[C@@](CC(C)C)([C@@H](CCN2C(=O)c3c(F)c(F)c(F)c(F)c3C2=O)C(=O)NO)C1=O (relative stereo) [Example 27, N^3 -Hydroxy-N^1-methyl-3-(2-methylpropyl)-2-oxo-α^3-[2-(4,5,6,7-tetrafluoro-1,3-dihydro-1,3-dioxo-2H-isoindol-2-yl)ethyl]-1,3-pyrrolidinediacetamide] | 16500 | 11000
5 | CC(C)CC1(C(CSc2cccs2)C(=O)NO)CCN(CCc2ccccc2)C1=O (stereo not drawn) [Example 19, N-Hydroxy-3-(2-methylpropyl)-2-oxo-1-(2-phenylethyl)-α-[2-(2-thienylthio)methyl]-3-pyrrolidineacetamide] | 2470 | 2770
6 | CC(C)CC1(CC(=O)NO)NC(=O)N(CCc2ccccc2)C1=O (stereo not shown) [Example 37, N-Hydroxy-4-(2-methylpropyl)-2,5-dioxo-1-(2-phenylethyl)-4-imidazolidineacetamide] | – | 4740
7 | CC(C)C[C@@]1([C@@H](CCN2C(=O)c3c(F)c(F)c(F)c(F)c3C2=O)C(=O)NO)CCN(Cc2ccccc2)C1=O (relative stereo) [Example 24, N-Hydroxy-3-(2-methylpropyl)-2-oxo-1-(phenylmethyl)-α-[2-(4,5,6,7-tetrafluoro-1,3-dihydro-1,3-dioxo-2H-isoindol-2-yl)ethyl]-3-pyrrolidineacetamide] | – | 7000
8 | CC(C)CC1(CC(=O)NO)CC(=O)N(CCc2ccccc2)C1=O (stereo not shown) [Example 35, N-Hydroxy-3-(2-methylpropyl)-2,5-dioxo-1-(2-phenylethyl)-3-pyrrolidineacetamide] | – | 3120
9 | CC(C)C[C@@]1([C@@H](CCNS(=O)(=O)c2ccc(F)cc2)C(=O)NO)CCN(CCc2ccccc2)C1=O [Example 84, [R-(R*,S*)]-α-[2-[[(4-Fluorophenyl)sulfonyl]amino]ethyl]-N-hydroxy-3-(2-methylpropyl)-2-oxo-1-(2-phenylethyl)-3-pyrrolidineacetamide] | 3000 | –
10 | CC(C)C[C@@]1([C@@H](CCNS(=O)(=O)c2ccc(F)cc2)C(=O)NO)CCN(CCc2ccccc2)C1=O (relative stereo) [Example 81, α-[2-[[(4-Fluorophenyl)sulfonyl]amino]ethyl]-N-hydroxy-3-(2-methylpropyl)-2-oxo-1-(2-phenylethyl)-3-pyrrolidineacetamide] | 1400 | –
11 | CC(C)C[C@@]1([C@@H](CCN2C(=O)c3cccc([N+](=O)[O-])c3C2=O)C(=O)NO)CCN(CCc2ccccc2)C1=O (relative stereo) [Example 10, N-Hydroxy-3-(2-methylpropyl)-α-[2-(4-nitro-1,3-dihydro-1,3-dioxo-2H-isoindol-2-yl)ethyl]-2-oxo-1-(2-phenylethyl)-3-pyrrolidineacetamide] | – | 6040
